Assay results published in US12617831B2 (UNIVERSITE D'ANGERS, priority 2019, dated 2026).

Tests used:
[1] = system: human peripheral blood mononuclear cells; experiment: Human osteoclast formation from peripheral blood mononuclear cells; format: cell-based; conditions: human PBMC, M-CSF 25 ng/ml + sRANKL 50 ng/ml, 1 nM peptide (FIG. 3)
Experimental: Human peripheral blood mononuclear cells were isolated from 3 buffy coats obtained at the Etablissement Francais du Sang (Angers, France) as described in Mabilleau and Sabokbar (2009) PLoS One 4:e4173. Blood was diluted 1:1 in α-minimal essential medium (MEM) (Invitrogen, Paisley, UK), layered over Histopaque and centrifuged (700×g) for 20 min. The interface layer was resuspended in MEM then centrifuged (600×g) for a further 10 min after which the resultant cells were resuspended in media supplemented with 10% heat inactivated foetal calf serum (FCS, Invitrogen, Paisley, UK) and counted in a haemocytometer following lysis of red blood cells using a 5% (v/v) acetic acid solution. […] (2011) J Biol Chem 286:3242-3249). After 2 h incubation, cultures were vigorously rinsed in medium to remove non-adherent cells, and then maintained in 1 ml MEM/FCS with 25 ng/ml recombinant human M-CSF, 50 ng/ml recombinant human sRANKL (added at day 7) and various concentrations of gut hormone analogues (added at day 7). Cultures were terminated after 14 days to assess the extent of osteoclast formation (TRAcP staining as described below). All factors were replenished every 2-3 days. […] Cultures were rinsed three times in distilled water and the residual activity was inhibited by 4% NaF for 30 minutes. […] The number of newly generated were assessed using light microscopic examination.

Murine MC3T3-E1 cells = experiment: Collagen maturity assay in MC3T3-E1 cultures (Example 2); format: cell-based; conditions: MC3T3-E1 cultures, 200 nM, vs vehicle (FIG. 2)
Experimental: At confluence, the propagation medium was replaced by the differentiation medium containing αMEM supplemented with 5% FBS, 5% bovine calf serum, 100 U/mL penicillin, 100 μg/mL streptomycin, 50 μg/ml ascorbic acid and various concentrations of analogues. This day was considered as day 1. The differentiation medium was replenished every two days. […] Cultures were rinsed at least six times with milliQ water, fixed in absolute ethanol, scrapped off the culture dish and transferred onto BaF2 windows where they were air-dried. Integrity of the collagen extracellular matrix was verified by comparing the obtained Fourier transform infrared spectrum with those of commercial collagen. Spectral analysis was performed using a Bruker Vertex 70 spectrometer (Bruker optics, Ettlingen, Germany) interfaced with a Bruker Hyperion 3000 infrared microscope equipped with a standard single element Mercury Cadmium Telluride (MCT) detector. Infrared spectra were recorded at a resolution of 4 cm^−1, with an average of 32 scans in transmission mode. Background spectral images were collected under identical conditions from the same BaF2 windows at the beginning and end of each experiment to ensure instrument stability. At least 20 spectra were acquired for each condition and analyzed with a lab-made routine script in Matlab R2016b (The Mathworks, Natick, MA).

human GLP-2r = target: T1, human GLP-2r (Homo sapiens, UniProt O95838); experiment: Cyclic AMP assay (FRET, H74 probe), HEK-293 transfected with human GLP-2r; format: cell-based; conditions: HEK 293 transfected only with human GLP-2r, 10^-9 M, 30 min (FIG. 17)
T1 construct: host or cells: HEK-293
T1 sequence (O95838 1-553): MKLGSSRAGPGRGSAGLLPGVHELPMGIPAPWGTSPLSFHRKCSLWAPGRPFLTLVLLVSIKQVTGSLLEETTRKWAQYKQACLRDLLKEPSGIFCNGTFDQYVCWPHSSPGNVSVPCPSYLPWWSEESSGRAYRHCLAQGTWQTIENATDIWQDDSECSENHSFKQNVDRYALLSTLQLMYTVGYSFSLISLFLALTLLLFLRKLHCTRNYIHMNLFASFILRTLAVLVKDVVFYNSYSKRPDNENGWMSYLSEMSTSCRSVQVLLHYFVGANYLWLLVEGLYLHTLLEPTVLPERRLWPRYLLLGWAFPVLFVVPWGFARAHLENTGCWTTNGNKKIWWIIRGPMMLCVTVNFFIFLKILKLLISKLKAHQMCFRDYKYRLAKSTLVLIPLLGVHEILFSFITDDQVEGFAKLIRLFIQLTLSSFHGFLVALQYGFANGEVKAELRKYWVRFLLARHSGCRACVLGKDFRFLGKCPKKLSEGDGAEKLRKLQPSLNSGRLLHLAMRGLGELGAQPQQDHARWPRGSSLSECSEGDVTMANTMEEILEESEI
Experimental: (§1) Human HEK-293 cells were plated at a density of 2×10^5 cells/cm^2 in 4 well microslides (ibidi GmbH, Martinsried, Germany). […] Jalink (Netherland Cancer Institute, Amsterdam, Netherland). […] The image acquisition was performed with a 63 X, 1.4 N.A. oil immersion objective and a Hybrid® detector (Leica) and images were collected after 30 minutes. Donor excitation was made with a 458 nm Ar laser, donor emission was collected between 460-505 nm and acceptor emission between 520-600 nm by setting the SP8 spectrometer accordingly. FRET was expressed as the ratio between donor and acceptor signals.

[2] = system: human GIPr and the human GLP-2r; experiment: Cyclic AMP assay (FRET, H74 probe), HEK-293 co-transfected with human GIPr and human GLP-2r; format: cell-based; conditions: HEK 293 co-transfected with human GIPr and human GLP-2r, 10^-9 M, 30 min (FIG. 18)
Experimental: as §1

[3] = system: MC3T3-E1 subclone 4 cells; format: cell-based, murine
Experimental: Briefly, MC3T3-E1 subclone 4 cells have been grown and propagated in α-MEM supplemented with 5% fetal bovine serum (FBS), 5% bovine calf serum (BCS), 100 U/mL penicillin, and 100 μg/mL streptomycin in a humidified atmosphere enriched with 5% CO2 at 37° C. […] This day was considered as day 1. The differentiation medium was replenished every two days. […] Cultures were rinsed at least six times with milliQ water, fixed in absolute ethanol, scrapped off the culture dish and transferred onto BaF2 windows where they were air-dried. Integrity of the collagen extracellular matrix was verified by comparing the obtained Fourier transform infrared spectrum with those of commercial collagen. Spectral analysis was performed using a Bruker Vertex 70 spectrometer (Bruker optics, Ettlingen, Germany) interfaced with a Bruker Hyperion 3000 infrared microscope equipped with a standard single element Mercury Cadmium Telluride (MCT) detector. Calibration of the infrared spectrometer is done once a week with a polystyrene film standard (Bruker optics). Infrared spectra were recorded at a resolution of 4 cm^-1, with an average of 32 scans in transmission mode. Background spectral images were collected under identical conditions from the same BaF2 windows at the beginning and end of each experiment to ensure instrument stability. At least 5 spectra were acquired for each condition and analyzed with a lab-made routine script (version 2.0) in Matlab R2016b (The Mathworks, Natick, MA). […] For GIP and GLP-2 dataset, the inventors used the collagen maturity data previously acquired and analyzed. First of all, collagen maturity obtained in control cultures, i.e. in the absence of double GIP/GLP-2 analogues, were averaged and subtracted to the all dataset. […] For each concentration of peptide, the mean, SD and number of events were computed. […] The GraphPad Prism analysis consisted in: […] Statistical Analysis […] Data are represented as mean±SD.

Murine Raw 264.7 cells = format: cell-based
Experimental: Murine Raw 264.7 cells were grown and expanded in propagation medium containing Dulbecco's modified Eagle medium (DMEM-Gibco) supplemented with 10% fetal bovine serum (FBS-Lonza), 100 U/mL penicillin and 100 μg/mL streptomycin (Gibco) in a humidified atmosphere enriched with 5% CO2 at 37° C. The first passage after thawing Raw 264.7 cells was considered as passage 1. Cells were used up to passage 8. […] Cultures were rinsed three times in distilled water and the residual activity was inhibited by 4% NaF (Sigma-Aldrich) for 30 min. Cells were then rinsed in distilled water and allowed to dry. TRAcP positive cells, with more than three nuclei, were identified as osteoclasts. The number of newly generated osteoclasts was assessed using light microscopic examination by a histologist that was blinded to the treatment intervention. […] For each concentration of peptide, the mean, SD and number of events were computed.

[4] = system: ovariectomy-induced bone loss in mice; experiment: Trabecular bone microarchitecture, fifth lumbar vertebra, ovariectomized mice; format: in vivo; conditions: OVX mice, L5, once 100 μg/kg iv, vs vehicle
Experimental: At 16 weeks of age, ALZET osmotic pumps (model number 2006, Durect Corp., Cupertino, CA) filled with the below saline or peptide were implanted subcutaneously between the two scapula under general anesthesia in 32 mice. Successful filling of pumps was verified by weighting the pump before and after filling. At 20 weeks of age, ALZET osmotic pumps were replaced by similar pumps to ensure delivery for four new weeks. […] This dose and regimen of zoledronic acid was equivalent to the 5 mg infusion approved for the treatment of post-menopausal osteoporosis in humans. Analyses of vertebral bodies of the fifth lumbar vertebra (L5) were performed with a Nanotom nanotomograph (Phoenix, GE, USA) operated at 85 kV, 220 μA, 1000 ms integration time. The isotropic pixel size was fixed at 4 μm, the rotation step at 0.25° and exposure was done with a 0.1 mm copper filter. Each 3D reconstruction image dataset was binarized using global thresholding. Trabecular volume of interest was computerized on coronal sections of the L5 vertebral body. Trabecular VOI was spread over the entire vertebral body excluding the first and last 80 μm from the anterior and posterior cortical wall. All microCT/NanoCT parameters were determined according to guidelines and nomenclature proposed by the American Society for Bone and Mineral Research (Bouxsein et al., 2010).

[5] = system: ovariectomy-induced bone loss in mice; experiment: Bone matrix composition by FTIRI at the femur midshaft, ovariectomized mice; format: in vivo; conditions: OVX mice, cortical bone femur, once 100 μg/kg iv, vs vehicle
Experimental: At 16 weeks of age, ALZET osmotic pumps (model number 2006, Durect Corp., Cupertino, CA) filled with the below saline or peptide were implanted subcutaneously between the two scapula under general anesthesia in 32 mice. Successful filling of pumps was verified by weighting the pump before and after filling. At 20 weeks of age, ALZET osmotic pumps were replaced by similar pumps to ensure delivery for four new weeks. […] This dose and regimen of zoledronic acid was equivalent to the 5 mg infusion approved for the treatment of post-menopausal osteoporosis in humans. After three-point bending experiments, femurs were embedded undecalcified in pMMA at 4° C. One-micrometer cross-sectional sections of the midshaft femur were sandwiched between BaF2 optical windows and Fourier transform infrared imaging (FTIRI) assessment was performed in the posterior quadrant. FTIRI was performed with a vertex 70 spectrometer (Bruker, Ettlingen, Germany) interfaced with a Hyperion 3000 microscope and a focal plane array detector (64×64 pixels) covering a field of view of 180×180 μm. Nine field-of-view were stitched together to allow sufficient bone to be analyzed. Sections were scanned with a spectral resolution of 8 cm^-1 (spectral region 900-2000 cm^-1). Each spectrum was corrected for Mie scattering with the […]5 algorithm (kind gift of Prof Peter Gardner, University of Manchester, UK) prior to be subjected to pMMA subtraction. Evaluation of spectral images was done with a lab-made routine script in Matlab R2016b (The Mathworks, Natick, MA) as described in Aguado et al. (2017) Calcif Tissue Int 100:332-340. FTIR bone parameters ([…] (2012) Methods Mol Biol 816:517-525) calculated were: (1) phosphate/amide ratio (area of v1, v3 phosphate/area amide1); (2) acid phosphate content (intensity ratio 1127 cm^-1/1096 cm^-1) (Spevak et al. (2013) Calcif Tissue Int 92:418-428); (3) mineral crystallinity (intensity ratio 1030 cm^-1/1020 cm^-1), reflecting crystal size and perfection; […] (2001) J Bone Miner Res 16:893-900). For each of the compositional parameters, the mean and full width at half maximum of the pixel distribution (excluding the zero background values) were computed and represented as mean and heterogeneity.

CC[C@H](C)[C@H](NC(=O)[C@H](Cc1ccccc1)NC(=O)[C@H](CC(=O)O)NC(=O)[C@H](CCCNC(=N)N)NC(=O)[C@H](C)NC(=O)[C@H](C)NC(=O)[C@H](CC(C)C)NC(=O)[C@H](CC(N)=O)NC(=O)[C@H](CC(=O)O)NC(=O)[C@H](CC(C)C)NC(=O)[C@@H](NC(=O)[C@@H](NC(=O)[C@H](CC(N)=O)NC(=O)[C@H](CCSC)NC(=O)[C@H](CCC(=O)O)NC(=O)[C@H](CC(=O)O)NC(=O)[C@H](CO)NC(=O)[C@H](Cc1ccccc1)NC(=O)[C@H](CO)NC(=O)CNC(=O)[C@H](CC(=O)O)NC(=O)CNC(=O)[C@@H](N)Cc1c[nH]cn1)[C@@H](C)O)[C@@H](C)CC)C(=O)N[C@@H](CC(N)=O)C(=O)N[C@@H](Cc1c[nH]c2ccccc12)C(=O)N[C@@H](CC(C)C)C(=O)N[C@H](C(=O)N[C@@H](CCC(N)=O)C(=O)N[C@H](C(=O)N[C@@H](CCCCN)C(=O)N[C@H](C(=O)N[C@H](C(=O)N[C@@H](CC(=O)O)C(=O)O)[C@@H](C)O)[C@@H](C)CC)[C@@H](C)O)[C@@H](C)CC [[Gly^2]GLP-2]
reduction in osteoclast formation [1]: 34%
increase in collagen maturity (Murine MC3T3-E1 cells): ~111%
intracellular levels of cAMP (human GLP-2r): increased intracellular levels of cAMP
intracellular levels of cAMP [2]: increased intracellular levels of cAMP
EC50 [3]: 0.063 ± 0.042 nM
Emax for dose-effect curves on collagen maturity ([3]; MC3T3-E1, day 14): 119.3%
EC50 (Murine Raw 264.7 cells): 0.0322 nM
IC50 computed from curve fitting of osteoclastogenesis vs. peptide concentration (Murine Raw 264.7 cells; Raw 264.7, RANKL 10 ng/ml, 110 h, * values determined from previous experiments, in pM): 32.2*
Emax, maximum inhibitory effect on osteoclastogenesis (Murine Raw 264.7 cells; Raw 264.7, * data obtained in previous experiments): 68.12* %

O=P(O)(O)C(O)(Cn1ccnc1)P(=O)(O)O [zoledronic acid]
increase in trabecular bone mass (BV/TV) [4]: 15%
increase in trabecular number [4]: 12%
augmentation of mineral crystallinity heterogeneity [5]: 21%
